Data: US8846750B2, “Pharmaceutical and food compositions for preventing or treating diabetes or obesity” (Korea Ocean Research and Development Institute, priority 2010, dated 2014)

Columns and labels:
[1] = system: other protein tyrosine phosphatases (PTPN5, PTPN6, PTPN7, PTPN13); experiment: Selectivity for protein tyrosine phosphatases: other phosphatases of the panel; format: biochemical; settings: for inhibitory activity against other protein tyrosine phosphatases: 0, 50, 100 or 200 nM tested; for selectivity among protein tyrosine phosphatases: PTP-1b, PTPN2, PTPN5, PTPN6, PTPN7 and PTPN13
Experimental: In order to examine the selectivity of sodium lobarate for protein tyrosine phosphatases, the inhibitory activities of sodium lobarate against PTP-1b, PTPN2, PTPN5, PTPN6, PTPN7 and PTPN13 were examined by spectroscopically measuring the activities of the enzymes.
(§1) Specifically, to 0.5 mg/Ml of PTP-1b, PTPN2, PTPN5, PTPN6, PTPN7 or PTPN13 (Bioneer, Korea) in protein tyrosine phosphatase buffer (20 mM Tris-Hcl, pH 8.0, 0.75 mM NaCl, 0.5 mM EDTA, 5 mM β-mercaptoethanol, 50% glycerol), 0, 50, 100 or 200 nM sodium lobarate and the substrate [pTyr1146] insulin receptor (1142-1153, Sigma, USA) were added. Then, each of the mixtures was allowed to react at room temperature for 10-30 minutes, and then malachite green-molybdate dye solution (Sigma, USA) was added thereto and reacted at room temperature for 10 minutes. After completion of the reaction with the substrate, the absorbance at 620 nm was measured.
In order to examine the selectivity of Lobarin for protein tyrosine phosphatases, the inhibitory activities of Lobarin against PTP-1b, PTPN2, PTPN5, PTPN6, PTPN7 and PTPN13 were examined by spectroscopically measuring the activities of the enzymes.
as §1, with “Lobarin” for “sodium lobarate”
as §1, with “In order to examine the selectivity of Lobarstin for protein tyrosine phosphatases, the inhibitory activities of Lobarstin against PTP-1b, PTPN2, PTPN5, PTPN6, PTPN7 and PTPN13 were examined by spectroscopically measuring the activities of the enzymes. Specifically,” for “Specifically,”, “Lobarstin” for “sodium lobarate”

[2] = system: db/db mice (type 2 diabetic model animals); experiment: Blood glucose level following 6 hours of fasting after intraperitoneal administration; format: in vivo; settings: 10 mg/kg intraperitoneally daily; for increase in the fasting blood glucose level compared with control group: days 0-21, 6 hours of fasting; for average blood glucose level after 6 hours of fasting: db/db mice
Experimental: (§2) In order to more accurately measure the antidiabetic effect of sodium lobarate, 200 μl of PBS for a control group and 10 mg/kg of sodium lobarate (PTP-1b activity inhibitory compound) for a test group was administered, respectively, intraperitoneally daily to 7-week-old male db/db mice (type 2 diabetic model animals, C57/BLKS/J-db/db, the Korea Research Institute of Bioscience and Biotechnology), and the blood glucose levels of the animals were measured twice a week. Herein, measurement of the blood glucose level was performed after 6 hours of fasting after intraperitoneal injection of sodium lobarate.
as §2, with “effect of Lobarin, 200 μl” for “effect of sodium lobarate, 200 μl”, “mg/kg of Lobarin for a” for “mg/kg of sodium lobarate (PTP-1b activity inhibitory compound) for a”, “blood glucose levels was performed” for “blood glucose level was performed”, “injection of Lobarin.” for “injection of sodium lobarate.”
In order to more accurately measure the antidiabetic effect of Lobarstin, 200 μl of PBS for a control group and 10 mg/kg of Lobarstin for a test group was administered intraperitoneally daily to 7-week-old male db/db mice (type 2 diabetic model animals, C57/BLKS/J-db/db, the Korea Research Institute of Bioscience and Biotechnology), and the blood glucose levels of the animals were measured twice a week. Herein, measurement of the blood glucose levels was performed after 6 hours of fasting after intraperitoneal injection of Lobarstin.

| Structure (SMILES) | inhibitory activity against other protein tyrosine phosphatases [1] | selectivity among protein tyrosine phosphatases [1] | increase in the fasting blood glucose level compared with control group [2] | average blood glucose level after 6 hours of fasting ([2]; day 0) [mg/dL] | average blood glucose level after 6 hours of fasting ([2]; day 3) [mg/dL] | average blood glucose level after 6 hours of fasting ([2]; day 7) [mg/dL] | average blood glucose level after 6 hours of fasting ([2]; day 10) [mg/dL] | average blood glucose level after 6 hours of fasting ([2]; day 14) [mg/dL] | average blood glucose level after 6 hours of fasting ([2]; day 17) [mg/dL] | average blood glucose level after 6 hours of fasting ([2]; day 21) [mg/dL] |
| --- | --- | --- | --- | --- | --- | --- | --- | --- | --- | --- |
| CCCCCc1c(Oc2cc(OC)cc3c2C(=O)OC3(O)CCCC)c(O)cc(O)c1C(=O)O (centres unmarked) [Lobarin] | no inhibitory activity | acts selectively only on PTP-1b | less than that in the control group | 152 | 141 | 155 | 198 | 261 | 287 | 340 |
| CCCCCc1c2c(cc(O)c1C(=O)[O-])OC(=O)c1c(cc(OC)cc1C(=O)CCCC)O2.[Na+] [sodium lobarate] | – | acts selectively only on PTP-1b | less than that in the control group | 141 | 142 | 185 | 206 | 232 | 236 | 313 |
| CCC/C=C1/OC(=O)c2c(Oc3c(O)cc(O)c(C(=O)O)c3CCCCC)cc(OC)cc21 [Lobarstin] | no inhibitory activity | acts selectively only on PTP-1b | less than that in the control group | 134 | – | 182 | – | 162 | – | 204 |
